Values after ≈ are worked out from the molar mass of the structure shown.
Tests used:
Assay type in all cases: functional
Staphylococcus aureus [1] = test: Antibacterial activity against Staphylococcus aureus ATCC 29213 assessed as inhibition of bacterial growth incubated for 18 to 24 hrs by broth microdilution method
Staphylococcus aureus [2] = test: Antibacterial activity against linezolid and methicillin-resistant Staphylococcus aureus SAU-1 assessed as inhibition of bacterial growth incubated for 18 to 24 hrs by broth microdilution method
Staphylococcus aureus [3] = test: Antibacterial activity against methicillin-resistant Staphylococcus aureus 44674 assessed as inhibition of bacterial growth incubated for 18 to 24 hrs by broth microdilution method
Staphylococcus aureus [4] = test: Antibacterial activity against methicillin-susceptible Staphylococcus aureus 69856 assessed as inhibition of bacterial growth incubated for 18 to 24 hrs by broth microdilution method
Staphylococcus aureus [5] = test: Antibacterial activity against methicillin-susceptible Staphylococcus aureus 39249 assessed as inhibition of bacterial growth incubated for 18 to 24 hrs by broth microdilution method
Staphylococcus hominis = test: Antibacterial activity against linezolid and methicillin-resistant Staphylococcus hominis alpha26 assessed as inhibition of bacterial growth incubated for 18 to 24 hrs by broth microdilution method
[6] = tested on: Staphylococcus epidermidis; test: Antibacterial activity against linezolid and methicillin-resistant Staphylococcus epidermidis G1027 assessed as inhibition of bacterial growth incubated for 18 to 24 hrs by broth microdilution method
[7] = tested on: Staphylococcus epidermidis; test: Antibacterial activity against methicillin-susceptible Staphylococcus epidermidis 3226 assessed as inhibition of bacterial growth incubated for 18 to 24 hrs by broth microdilution method
Enterococcus faecalis [8] = test: Antibacterial activity against Enterococcus faecalis ATCC 29212 assessed as inhibition of bacterial growth incubated for 18 to 24 hrs by broth microdilution method
Enterococcus faecalis [9] = test: Antibacterial activity against linezolid and […] 4150 assessed as inhibition of bacterial growth incubated for 18 to 24 hrs by broth microdilution method
Enterococcus faecium = test: Antibacterial activity against linezolid and vancomycin-resistant Enterococcus faecium VRE2 assessed as inhibition of bacterial growth incubated for 18 to 24 hrs by broth microdilution method
[10] = Antioxidant activity assessed as DPPH scavenging activity by measuring mmol of Trolox equivalent antioxidant capacity incubated for 40 mins
[11] = Antioxidant activity assessed as ABTS scavenging activity by measuring mmol of Trolox equivalent antioxidant capacity incubated for 6 mins

Structure (SMILES) | MIC (Staphylococcus aureus [1]) [µg/mL] | MIC (Staphylococcus aureus [2]) [µg/mL] | MIC (Staphylococcus aureus [3]) [µg/mL] | MIC (Staphylococcus aureus [4]) [µg/mL] | MIC (Staphylococcus aureus [5]) [µg/mL] | MIC (Staphylococcus hominis) [µg/mL] | MIC [6] [µg/mL] | MIC [7] [µg/mL] | MIC (Enterococcus faecalis [8]) [µg/mL] | MIC (Enterococcus faecalis [9]) [µg/mL] | MIC (Enterococcus faecium) [µg/mL] | Activity [10] [mmolequiv] | Activity [11] [mmolequiv]
COc1cc(/C=C/C(=O)O[C@H](C)[C@H]2C(=O)N/C2=C\C(=O)OCc2ccccc2)cc(OC)c1O | > 128 | 8 (≈ 17.1 µM) | 8 (≈ 17.1 µM) | > 128 | 8 (≈ 17.1 µM) | 4 (≈ 8.56 µM) | > 128 | > 128 | > 128 | > 128 | > 128 | 0.191 | 0.232
C[C@@H](OC(=O)c1cccc2c1OCO2)[C@H]1C(=O)N/C1=C\C(=O)OCc1ccccc1 | 16 (≈ 39.1 µM) | 2 (≈ 4.89 µM) | > 128 | > 128 | > 128 | 8 (≈ 19.5 µM) | > 128 | > 128 | > 128 | > 128 | > 128 |  | 
C[C@@H](OC(=O)/C=C/c1ccc(O)c(O)c1)[C@H]1C(=O)N/C1=C\C(=O)OCc1ccccc1 | > 128 | > 128 | > 128 | > 128 | > 128 | > 128 | > 128 | > 128 | > 128 | > 128 | > 128 | 1.67 | 1.03
COc1cc(/C=C/C(=O)O[C@H](C)[C@H]2C(=O)N/C2=C\C(=O)OCc2ccccc2)ccc1O | 4 (≈ 9.14 µM) | 4 (≈ 9.14 µM) | 4 (≈ 9.14 µM) | 8 (≈ 18.3 µM) | 8 (≈ 18.3 µM) | 4 (≈ 9.14 µM) | 4 (≈ 9.14 µM) | 8 (≈ 18.3 µM) | > 128 | 8 (≈ 18.3 µM) | > 128 | 0.142 | 0.284
CN[C@H](CC(C)C)C(=O)N[C@H]1C(=O)N[C@@H](CC(N)=O)C(=O)N[C@H]2C(=O)N[C@H]3C(=O)N[C@H](C(=O)N[C@H](C(=O)O)c4cc(O)cc(O)c4-c4cc3ccc4O)[C@H](O)c3ccc(c(Cl)c3)Oc3cc2cc(c3O[C@@H]2O[C@H](CO)[C@@H](O)[C@H](O)[C@H]2O[C@H]2C[C@](C)(N)[C@H](O)[C@H](C)O2)Oc2ccc(cc2Cl)[C@H]1O [VANCOMYCIN] |  |  |  |  |  | 1 (≈ 0.69 µM) |  |  | 2 (≈ 1.38 µM) | 0.25 (≈ 0.173 µM) | > 128 |  | 
C[C@@H](OC(=O)c1ccc(O)c(O)c1)[C@H]1C(=O)N/C1=C\C(=O)OCc1ccccc1 | 16 (≈ 40.3 µM) | 16 (≈ 40.3 µM) | 8 (≈ 20.1 µM) | 4 (≈ 10.1 µM) | 4 (≈ 10.1 µM) | > 128 | 16 (≈ 40.3 µM) | 16 (≈ 40.3 µM) | 128 (≈ 322 µM) | 128 (≈ 322 µM) | 128 (≈ 322 µM) | 2.59 | 1.3
C[C@@H](OC(=O)/C=C/c1ccccc1O)[C@H]1C(=O)N/C1=C\C(=O)OCc1ccccc1 | 2 (≈ 4.91 µM) | 1 (≈ 2.45 µM) | > 128 | > 128 | > 128 | 2 (≈ 4.91 µM) | > 128 | > 128 | > 128 | > 128 | > 128 | 0.002 | 0.143
C[C@@H](OC(=O)c1ccc2c(c1)OCO2)[C@H]1C(=O)N/C1=C\C(=O)OCc1ccccc1 | 2 (≈ 4.89 µM) | 2 (≈ 4.89 µM) | 4 (≈ 9.77 µM) | 8 (≈ 19.5 µM) | 4 (≈ 9.77 µM) | 4 (≈ 9.77 µM) | 4 (≈ 9.77 µM) | 8 (≈ 19.5 µM) | > 128 | > 128 | > 128 | 0.012 | 
CO/N=C(\C(=O)N[C@@H]1C(=O)N2C(C(=O)O)=C(COC(N)=O)CS[C@H]12)c1ccco1 [CEFUROXIME] | 2 (≈ 4.71 µM) | > 128 | 8 (≈ 18.9 µM) | 1 (≈ 2.36 µM) | 2 (≈ 4.71 µM) | 8 (≈ 18.9 µM) | 32 (≈ 75.4 µM) | 0.5 (≈ 1.18 µM) | > 128 | > 128 | > 128 |  | 
C[C@@H](OC(=O)c1ccc(O)cc1)[C@H]1C(=O)N/C1=C\C(=O)OCc1ccccc1 | 2 (≈ 5.24 µM) | 2 (≈ 5.24 µM) | > 128 | > 128 | > 128 | 16 (≈ 42 µM) | > 128 | > 128 | > 128 | > 128 | > 128 | 0.007 | 0.01
C[C@@H](OC(=O)/C=C/c1ccc2c(c1)OCO2)[C@H]1C(=O)N/C1=C\C(=O)OCc1ccccc1 | > 128 | > 128 | > 128 | > 128 | > 128 | 128 (≈ 294 µM) | > 128 | > 128 | > 128 | > 128 | > 128 |  | 
C[C@@H](OC(=O)/C=C/c1ccc(O)cc1)[C@H]1C(=O)N/C1=C\C(=O)OCc1ccccc1 | 8 (≈ 19.6 µM) | 4 (≈ 9.82 µM) | 4 (≈ 9.82 µM) | 8 (≈ 19.6 µM) | 4 (≈ 9.82 µM) | 4 (≈ 9.82 µM) | 8 (≈ 19.6 µM) | 8 (≈ 19.6 µM) | > 128 | 64 (≈ 157 µM) | > 128 | 0.003 | 0.053

— ChEMBL document CHEMBL4130476, “4-Alkyliden-azetidinones modified with plant derived polyphenols: Antibacterial and antioxidant properties” (2017)
